Tests used:
[1] = target: PKMYT1 (Homo sapiens (Human), UniProt Q99640); assay: PKMYT1 HTRF Assay; format: binding; settings: Tracer 178, GST-Tb, read-out: MYT1 HTRF IC50
Procedure: Example A: PKMYT1 HTRF Assay
Compound serial dilution was performed by Echo, and the final concentrations vary from 10 μM to 0.5 nM. This was filled by the addition of 5 μL/well of Enzyme solution to the assay plate containing the compound. The plate was centrifuged at 1000 rpm for 1 minute, and incubate 15 minutes at 25° C. Then 5 μL/well of tracer solution (Tracer 178) was added to initiate the reaction, and incubate for 60 minutes at 25° C. Next 5 μL GST-Tb was added into the assay plate, the plate was centrifuged at 1000 rpm for 1 minute, and incubate for 15 minutes at 25° C. The assay plate was read on Envision.

[2] = target: WEE1 (Homo sapiens (Human), UniProt P30291); assay: WEE1 ADP-Glo Assay; format: biochemical; settings: luminescence
Procedure: Example B: WEE1 ADP-Glo Assay
Compound serial dilution is performed by Echo, and the final concentrations vary from 10 μM to 0.5 nM. This was filled by the addition of 5 μL/well of Enzyme solution to the assay plate containing the compound. The plate was centrifuged at 1000 rpm for 1 minute, and incubate 15 minutes at 25° C. Then 5 μL/well of substrate solution was added to initiate the reaction, and incubate for 60 minutes at 25° C. Next 10 μL kinase detection reagent was added into the assay plate, the plate was centrifuged at 1000 rpm for 1 minute, and incubate for 60 minutes at 25° C. The assay plate was read on Envision for US LUM as RLU.

WEE1, sequence (P30291 whole entry, species assumed): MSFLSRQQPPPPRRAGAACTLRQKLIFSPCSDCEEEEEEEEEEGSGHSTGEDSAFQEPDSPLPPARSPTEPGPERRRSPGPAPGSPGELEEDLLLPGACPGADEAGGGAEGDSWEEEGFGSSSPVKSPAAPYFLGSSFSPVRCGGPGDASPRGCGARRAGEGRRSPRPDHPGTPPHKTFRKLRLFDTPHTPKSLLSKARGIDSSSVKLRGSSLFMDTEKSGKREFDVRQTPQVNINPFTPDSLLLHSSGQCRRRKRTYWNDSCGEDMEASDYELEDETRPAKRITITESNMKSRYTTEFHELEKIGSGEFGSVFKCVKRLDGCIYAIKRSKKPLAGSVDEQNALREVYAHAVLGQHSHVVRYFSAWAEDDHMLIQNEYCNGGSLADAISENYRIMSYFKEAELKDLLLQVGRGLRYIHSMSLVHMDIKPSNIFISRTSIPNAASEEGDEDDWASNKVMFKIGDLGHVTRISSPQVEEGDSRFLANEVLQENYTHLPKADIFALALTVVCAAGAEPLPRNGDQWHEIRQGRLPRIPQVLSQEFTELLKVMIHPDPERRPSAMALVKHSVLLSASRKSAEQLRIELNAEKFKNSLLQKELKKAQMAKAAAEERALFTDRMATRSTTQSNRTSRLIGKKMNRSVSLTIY
PKMYT1, sequence (Q99640 whole entry, species assumed): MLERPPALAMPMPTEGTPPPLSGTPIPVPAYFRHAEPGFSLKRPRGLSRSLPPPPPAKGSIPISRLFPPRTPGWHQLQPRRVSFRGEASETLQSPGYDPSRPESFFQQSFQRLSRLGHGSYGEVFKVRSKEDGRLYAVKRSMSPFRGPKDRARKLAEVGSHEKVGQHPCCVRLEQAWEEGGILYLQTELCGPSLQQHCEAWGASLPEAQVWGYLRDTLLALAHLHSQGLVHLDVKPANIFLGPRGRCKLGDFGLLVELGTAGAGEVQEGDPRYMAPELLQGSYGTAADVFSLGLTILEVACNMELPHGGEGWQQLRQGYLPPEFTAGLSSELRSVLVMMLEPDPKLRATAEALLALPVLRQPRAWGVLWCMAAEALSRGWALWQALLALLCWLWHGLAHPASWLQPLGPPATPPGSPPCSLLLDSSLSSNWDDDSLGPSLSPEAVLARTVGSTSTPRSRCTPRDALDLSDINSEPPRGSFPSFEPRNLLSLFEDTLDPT

Row | SMILES | IC50 [1] [nM] | IC50 [2] [nM]
1 | Cc1ccc(O)c(C)c1-n1nc(-c2nccs2)c(C(N)=O)c1N [Example 1, 5-amino-1-(3-hydroxy-2,6-dimethylphenyl)-3-(thiazol-2-yl)-1H-pyrazole-4-carboxamide] | < 10 | 50 to 500
2 | Cc1ccc(O)c(C)c1-n1nc(-c2nccs2)c(C(N)=O)c1N [Example 2, 5-amino-1-(3-hydroxy-2,6-dimethylphenyl)-3-(thiazol-2-yl)-1H-pyrazole-4-carboxamide] |  | 50 to 500
3 | Cc1ccc(O)c(C)c1-n1nc(-c2nc(C(F)(F)F)cs2)c(C(N)=O)c1N [Example 3, 5-amino-1-(3-hydroxy-2,6-dimethylphenyl)-3-(4-(trifluoromethyl)thiazol-2-yl)-1H-pyrazole-4-carboxamide] | < 10 | 50 to 500
4 | Cc1csc(-c2nn(-c3c(C)ccc(O)c3C)c(N)c2C(N)=O)n1 [Example 4, 5-amino-1-(3-hydroxy-2,6-dimethylphenyl)-3-(4-methylthiazol-2-yl)-1H-pyrazole-4-carboxamide] | < 10 | 
5 | Cc1cnc(-c2nn(-c3c(C)ccc(O)c3C)c(N)c2C(N)=O)s1 [Example 5, 5-amino-1-(3-hydroxy-2,6-dimethylphenyl)-3-(5-methylthiazol-2-yl)-1H-pyrazole-4-carboxamide] | < 10 | 
6 | Cc1c(O)ccc(Cl)c1-n1nc(-c2nccs2)c(C(N)=O)c1N [Example 6, 5-amino-1-(6-chloro-3-hydroxy-2-methylphenyl)-3-(thiazol-2-yl)-1H-pyrazole-4-carboxamide] | < 10 | 50 to 500
7 | Cc1ccc(O)c(C)c1-n1nc(-c2nc3cnccc3s2)c(C(N)=O)c1N [Example 7, 5-amino-1-(3-hydroxy-2,6-dimethylphenyl)-3-(thiazolo[4,5-c]pyridin-2-yl)-1H-pyrazole-4-carboxamide] | 10 to 50 | 500 to 5000
8 | Cc1ccc(O)c(C)c1-n1nc(-c2ccn(CC(C)(C)O)n2)c(C(N)=O)c1N [Example 8, 5-amino-1-(3-hydroxy-2,6-dimethylphenyl)-1′-(2-hydroxy-2-methylpropyl)-1H,1′H-[3,3′-bipyrazole]-4-carboxamide] | 50 to 500 | > 5000
9 | Cc1ccc(O)c(C)c1-n1nc(-c2ccn(C(F)F)n2)c(C(N)=O)c1N [Example 9, 5-amino-1′-(difluoromethyl)-1-(3-hydroxy-2,6-dimethylphenyl)-1H,1′H-[3,3′-bipyrazole]-4-carboxamide] | < 10 | 50 to 500
10 | Cc1ccc(O)c(C)c1-n1nc(-c2ccc(C(F)(F)F)cn2)c(C(N)=O)c1N [Example 10, 5-amino-1-(3-hydroxy-2,6-dimethylphenyl)-3-(5-(trifluoromethyl)pyridin-2-yl)-1H-pyrazole-4-carboxamide] | 10 to 50 | 500 to 5000
11 | Cc1ccc(O)c(C)c1-n1nc(-c2ncc3n2CCCC3)c(C(N)=O)c1N [Example 11, 5-amino-1-(3-hydroxy-2,6-dimethylphenyl)-3-(5,6,7,8-tetrahydroimidazo[1,5-a]pyridin-3-yl)-1H-pyrazole-4-carboxamide] | 50 to 500 | 

— patent publication US20250188094A1, “PYRAZOLE MEMBRANE-ASSOCIATED TYROSINE-AND THREONINE-SPECIFIC CDC2-INHIBITORY KINASE (PKMYT1) INHIBITORS AND USES THEREOF” (Insilico Medicine IP Limited, priority 2022, published 2025)
